{
  "source": "PubChem BioAssay (NCI)",
  "assay_in_all_cases": "inhibition of tumour cell growth, NCI panel, 384-well format",
  "key": {"[1]": {"system": "NCI-H226 lung"}, "[2]": {"system": "786-0 renal"}, "[3]": {"system": "SNB-19 CNS"}, "[4]": {"system": "A498 renal"}, "[5]": {"system": "ACHN renal"}, "[6]": {"system": "K-562 leukemia"}, "[7]": {"system": "KM12 colon"}, "[8]": {"system": "HT29 colon"}, "[9]": {"system": "MDA-MB-231 breast"}, "[10]": {"system": "DU-145 prostate"}, "[11]": {"system": "OVCAR-4 ovarian"}, "[12]": {"system": "T-47D breast"}, "[13]": {"system": "NCI-H23 lung"}, "[14]": {"system": "EKVX NSCLC"}, "[15]": {"system": "NCI-H460 NSCLC"}, "[16]": {"system": "MCF7 breast"}, "[17]": {"system": "MDA-MB-468 breast"}, "[18]": {"system": "SF-268 CNS"}, "[19]": {"system": "OVCAR-3 ovarian"}, "[20]": {"system": "UO-31 renal"}, "[21]": {"system": "COLO 205 colon"}, "[22]": {"system": "RXF 393 renal"}, "[23]": {"system": "SF-539 CNS"}, "[24]": {"system": "SN12C renal"}, "[25]": {"system": "NCI-H322M lung"}, "[26]": {"system": "A549 NSCLC"}, "[27]": {"system": "OVCAR-8 ovarian"}, "[28]": {"system": "SK-OV-3 ovarian"}, "[29]": {"system": "HOP-62 NSCLC"}},
  "note": "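GI50: concentration for 50% inhibition of growth. TGI: total growth inhibition.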",
  "data": [
    {"smiles": "Nc1cc(C(F)(F)F)c(-c2nc(N3CCOCC3)nc(N3CCOCC3)n2)cn1", "values": [
      {"measurement": "GI50", "setting": "[1]", "result": 0.563, "unit": "µM"},
      {"measurement": "TGI", "setting": "[1]", "result": 4.35, "unit": "µM"},
      {"measurement": "GI50", "setting": "[2]", "result": 1.32, "unit": "µM"},
      {"measurement": "TGI", "setting": "[2]", "result": 12.1, "unit": "µM"},
      {"measurement": "GI50", "setting": "[3]", "result": 8.53, "unit": "µM"},
      {"measurement": "TGI", "setting": "[3]", "result": 50.2, "unit": "µM"},
      {"measurement": "GI50", "setting": "[4]", "result": 0.32, "unit": "µM"},
      {"measurement": "TGI", "setting": "[4]", "result": 2.26, "unit": "µM"},
      {"measurement": "GI50", "setting": "[5]", "result": 0.57, "unit": "µM"},
      {"measurement": "TGI", "setting": "[5]", "result": 8.66, "unit": "µM"},
      {"measurement": "GI50", "setting": "[6]", "result": 2.78, "unit": "µM"},
      {"measurement": "TGI", "setting": "[6]", "result": 40.5, "unit": "µM"},
      {"measurement": "GI50", "setting": "[7]", "result": 1.27, "unit": "µM"},
      {"measurement": "TGI", "setting": "[7]", "result": 14.6, "unit": "µM"},
      {"measurement": "GI50", "setting": "[8]", "result": 0.554, "unit": "µM"},
      {"measurement": "TGI", "setting": "[8]", "result": 14.8, "unit": "µM"},
      {"measurement": "GI50", "setting": "[9]", "result": 0.834, "unit": "µM"},
      {"measurement": "TGI", "setting": "[9]", "result": 38.7, "unit": "µM"},
      {"measurement": "GI50", "setting": "[10]", "result": 0.847, "unit": "µM"},
      {"measurement": "TGI", "setting": "[10]", "result": 21.3, "unit": "µM"},
      {"measurement": "GI50", "setting": "[11]", "result": 1.48, "unit": "µM"},
      {"measurement": "TGI", "setting": "[11]", "result": 7.9, "unit": "µM"},
      {"measurement": "GI50", "setting": "[12]", "result": 0.107, "unit": "µM"},
      {"measurement": "TGI", "setting": "[12]", "result": 0.583, "unit": "µM"},
      {"measurement": "GI50", "setting": "[13]", "result": 0.552, "unit": "µM"},
      {"measurement": "TGI", "setting": "[13]", "result": 15.9, "unit": "µM"},
      {"measurement": "GI50", "setting": "[14]", "result": 0.342, "unit": "µM"},
      {"measurement": "TGI", "setting": "[14]", "result": 3.53, "unit": "µM"},
      {"measurement": "GI50", "setting": "[15]", "result": 0.246, "unit": "µM"},
      {"measurement": "TGI", "setting": "[15]", "result": 10.4, "unit": "µM"},
      {"measurement": "GI50", "setting": "[16]", "result": 0.151, "unit": "µM"},
      {"measurement": "TGI", "setting": "[16]", "result": 11.9, "unit": "µM"},
      {"measurement": "GI50", "setting": "[17]", "result": 0.353, "unit": "µM"},
      {"measurement": "TGI", "setting": "[17]", "result": 2.2, "unit": "µM"},
      {"measurement": "GI50", "setting": "[18]", "result": 1.46, "unit": "µM"},
      {"measurement": "TGI", "setting": "[18]", "result": 18.2, "unit": "µM"},
      {"measurement": "GI50", "setting": "[19]", "result": 0.354, "unit": "µM"},
      {"measurement": "TGI", "setting": "[19]", "result": 3.92, "unit": "µM"},
      {"measurement": "GI50", "setting": "[20]", "result": 0.426, "unit": "µM"},
      {"measurement": "TGI", "setting": "[20]", "result": 19.2, "unit": "µM"},
      {"measurement": "GI50", "setting": "[21]", "result": 0.544, "unit": "µM"},
      {"measurement": "TGI", "setting": "[21]", "result": 9.66, "unit": "µM"},
      {"measurement": "GI50", "setting": "[22]", "result": 1.15, "unit": "µM"},
      {"measurement": "TGI", "setting": "[22]", "result": 4.96, "unit": "µM"},
      {"measurement": "GI50", "setting": "[23]", "result": 1.15, "unit": "µM"},
      {"measurement": "TGI", "setting": "[23]", "result": 13.7, "unit": "µM"},
      {"measurement": "GI50", "setting": "[24]", "result": 0.195, "unit": "µM"},
      {"measurement": "TGI", "setting": "[24]", "result": 2.3, "unit": "µM"},
      {"measurement": "GI50", "setting": "[25]", "result": 0.534, "unit": "µM"},
      {"measurement": "TGI", "setting": "[25]", "result": 11.5, "unit": "µM"},
      {"measurement": "GI50", "setting": "[26]", "result": 0.902, "unit": "µM"},
      {"measurement": "TGI", "setting": "[26]", "result": 9, "unit": "µM"},
      {"measurement": "GI50", "setting": "[27]", "result": 1.12, "unit": "µM"},
      {"measurement": "TGI", "setting": "[27]", "result": 93.6, "unit": "µM"},
      {"measurement": "GI50", "setting": "[28]", "result": 0.332, "unit": "µM"},
      {"measurement": "TGI", "setting": "[28]", "result": 2.04, "unit": "µM"},
      {"measurement": "GI50", "setting": "[29]", "result": 1.31, "unit": "µM"},
      {"measurement": "TGI", "setting": "[29]", "result": 14.1, "unit": "µM"}
    ]}
  ]
}
